Assay results published in US20160244435A1, “EXPANDED THERAPEUTIC POTENTIAL IN NITROHETEROARYL ANTIMICROBIALS” (The Regents of the University of California, priority 2013, published 2016).
Read-outs that look alike come from different tables or passages of the source.

Experiments:
[1] = system: Mz-resistant (MzR) G. lamblia 713 line; assay: microbe, parasite or virus in culture; assay type: cell-based, Giardia lamblia
[2] = system: G. lamblia GS/M; assay: Murine Giardia infection model; assay type: in vivo, C57BL/6 mice; conditions: single oral dose, data not shown
[3] = system: Giardia; conditions: cited from earlier work
[4] = system: Mz-sensitive (MzS) G. lamblia strain 713; assay: Giardia 48 h growth and survival assay (ATP read-out), Mz-sensitive line; assay type: cell-based, Giardia lamblia; conditions: Giardia duodenalis; sensitive 713 line (MzS cells)
[5] = regimen not stated or depending on dosing regimens

SMILES: Cc1ncc([N+](=O)[O-])n1CCO [Mz, metronidazole]
- residual activity in MzR compared to MzS cells, 100%×(EC50 in MzS/EC50 in MzR) ([1]; 713 syngeneic pair): 4%
- EC50 ([1]; Giardia duodenalis): 50 µM
- lowest single dose that eradicates giardiasis in at least half of infected mice [2]: 100 mg/kg
- efficacy ([3]; single-dose treatment): 20-60%
- efficacy (cases in which effective) ([3]; three daily 250 mg oral doses for 5-10 days): 80-95%
- EC50 [4]: 2 µM

SMILES: CCCSc1ccc2nc(NC(=O)OC)[nH]c2c1 [albendazole]
- efficacy [3, 5]: 25-90%

SMILES: O=C1OCCN1/N=C/c1ccc([N+](=O)[O-])o1 [furazolidone]
- efficacy [3, 5]: 80-85%

SMILES: CC(=O)Oc1ccccc1C(=O)Nc1ncc([N+](=O)[O-])s1 [nitazoxanide]
- efficacy ([3]; two daily 500 mg doses for three days): 70-80%

SMILES: CCN(CC)CCCC(C)Nc1c2ccc(Cl)cc2nc2ccc(OC)cc12 (stereo not shown) [quinacrine]
- efficacy [3, 5]: up to 90%
